Results published in PubChem BioAssay (NCI).
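96-well plates; 48 h exposure; 5 concentrations. Endpoints by linear interpolation between flanking doses. Not reached: highest tested concentration assigned. TGI marks complete inhibition of growth.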

Columns and labels:
Assay in all cases: growth of human tumour cells (NCI), 48 h
K-562 leukemia = test system: K-562 leukemia
U251 CNS = test system: U251 CNS
786-0 renal = test system: 786-0 renal
MDA-N = test system: MDA-N
IGROV1 ovarian = test system: IGROV1 ovarian
EKVX NSCLC = test system: EKVX NSCLC
M14 melanoma = test system: M14 melanoma
SF-539 CNS = test system: SF-539 CNS
NCI-H23 lung = test system: NCI-H23 lung
RXF 393 renal = test system: RXF 393 renal
UACC-257 melanoma = test system: UACC-257 melanoma
A549 NSCLC = test system: A549 NSCLC
NCI-H460 lung = test system: NCI-H460 lung
SNB-19 CNS = test system: SNB-19 CNS
HT29 colon = test system: HT29 colon
NCI-H226 lung = test system: NCI-H226 lung
TK-10 renal = test system: TK-10 renal
HL-60(TB) leukemia = test system: HL-60(TB) leukemia
BT-549 breast = test system: BT-549 breast
KM12 colon = test system: KM12 colon
OVCAR-5 ovarian = test system: OVCAR-5 ovarian
MOLT-4 leukemia = test system: MOLT-4 leukemia
SK-MEL-5 melanoma = test system: SK-MEL-5 melanoma
NCI-H522 lung = test system: NCI-H522 lung
SK-MEL-28 melanoma = test system: SK-MEL-28 melanoma
SN12C renal = test system: SN12C renal
LOX IMVI melanoma = test system: LOX IMVI melanoma
SW-620 colon = test system: SW-620 colon
MCF7 breast = test system: MCF7 breast
HCT-116 colon = test system: HCT-116 colon
OVCAR-8 ovarian = test system: OVCAR-8 ovarian
SF-268 CNS = test system: SF-268 CNS
CAKI-1 renal = test system: CAKI-1 renal
ACHN renal = test system: ACHN renal
DU-145 prostate = test system: DU-145 prostate
OVCAR-3 ovarian = test system: OVCAR-3 ovarian
SNB-75 CNS = test system: SNB-75 CNS
UO-31 renal = test system: UO-31 renal
MDA-MB-435 = test system: MDA-MB-435
HOP-62 NSCLC = test system: HOP-62 NSCLC
CCRF-CEM leukemia = test system: CCRF-CEM leukemia
A498 renal = test system: A498 renal
MDA-MB-231 breast = test system: MDA-MB-231 breast
HOP-92 NSCLC = test system: HOP-92 NSCLC
HCT-15 colon = test system: HCT-15 colon
SF-295 CNS = test system: SF-295 CNS
MALME-3M melanoma = test system: MALME-3M melanoma
PC-3 prostate = test system: PC-3 prostate
T-47D breast = test system: T-47D breast
SR leukemia = test system: SR leukemia
NCI/ADR-RES ovarian = test system: NCI/ADR-RES ovarian
COLO 205 colon = test system: COLO 205 colon
SK-OV-3 ovarian = test system: SK-OV-3 ovarian
UACC-62 melanoma = test system: UACC-62 melanoma
HCC-2998 colon = test system: HCC-2998 colon
OVCAR-4 ovarian = test system: OVCAR-4 ovarian
RPMI-8226 leukemia = test system: RPMI-8226 leukemia
HS 578T breast = test system: HS 578T breast
SK-MEL-2 melanoma = test system: SK-MEL-2 melanoma

Compound: CCN1CCCCCCCCCC(=N/O)/C(=N\O)C1
- TGI (K-562 leukemia): > 100 µM
- TGI (U251 CNS): > 100 µM
- TGI (786-0 renal): > 100 µM
- TGI (MDA-N): > 100 µM
- TGI (IGROV1 ovarian): > 100 µM
- TGI (EKVX NSCLC): > 100 µM
- TGI (M14 melanoma): > 100 µM
- TGI (SF-539 CNS): > 100 µM
- TGI (NCI-H23 lung): > 100 µM
- TGI (RXF 393 renal): > 100 µM
- TGI (UACC-257 melanoma): > 100 µM
- TGI (A549 NSCLC): > 100 µM
- TGI (NCI-H460 lung): > 100 µM
- TGI (SNB-19 CNS): > 100 µM
- TGI (HT29 colon): > 100 µM
- TGI (NCI-H226 lung): > 100 µM
- TGI (TK-10 renal): > 100 µM
- TGI (HL-60(TB) leukemia): > 100 µM
- TGI (BT-549 breast): > 100 µM
- TGI (KM12 colon): > 100 µM
- TGI (OVCAR-5 ovarian): > 100 µM
- TGI (MOLT-4 leukemia): > 100 µM
- TGI (SK-MEL-5 melanoma): > 100 µM
- TGI (NCI-H522 lung): > 100 µM
- TGI (SK-MEL-28 melanoma): > 100 µM
- TGI (SN12C renal): > 100 µM
- TGI (LOX IMVI melanoma): > 100 µM
- TGI (SW-620 colon): > 100 µM
- TGI (MCF7 breast): > 100 µM
- TGI (HCT-116 colon): > 100 µM
- TGI (OVCAR-8 ovarian): > 100 µM
- TGI (SF-268 CNS): > 100 µM
- TGI (CAKI-1 renal): > 100 µM
- TGI (ACHN renal): > 100 µM
- TGI (DU-145 prostate): > 100 µM
- TGI (OVCAR-3 ovarian): > 100 µM
- TGI (SNB-75 CNS): > 100 µM
- TGI (UO-31 renal): > 100 µM
- TGI (MDA-MB-435): > 100 µM
- TGI (HOP-62 NSCLC): > 100 µM
- TGI (CCRF-CEM leukemia): > 100 µM
- TGI (A498 renal): > 100 µM
- TGI (MDA-MB-231 breast): > 100 µM
- TGI (HOP-92 NSCLC): > 100 µM
- TGI (HCT-15 colon): > 100 µM
- TGI (SF-295 CNS): > 100 µM
- TGI (MALME-3M melanoma): > 100 µM
- TGI (PC-3 prostate): > 100 µM
- TGI (T-47D breast): > 100 µM
- TGI (SR leukemia): > 100 µM
- TGI (NCI/ADR-RES ovarian): > 100 µM

Compound: COC(=O)NCCc1[nH]nc2c1C(=O)C=C(Nc1ccccc1OC)C2=O
- TGI (K-562 leukemia): > 100 µM
- TGI (U251 CNS): 72.5 µM
- TGI (786-0 renal): > 100 µM
- TGI (MDA-N): 35.1 µM
- TGI (IGROV1 ovarian): 65.3 µM
- TGI (EKVX NSCLC): > 100 µM
- TGI (COLO 205 colon): 61.6 µM
- TGI (M14 melanoma): 62.9 µM
- TGI (SK-OV-3 ovarian): > 100 µM
- TGI (SF-539 CNS): 34.4 µM
- TGI (NCI-H23 lung): 32.7 µM
- TGI (RXF 393 renal): > 100 µM
- TGI (UACC-257 melanoma): 35.6 µM
- TGI (UACC-62 melanoma): 39.9 µM
- TGI (A549 NSCLC): > 100 µM
- TGI (NCI-H460 lung): > 100 µM
- TGI (SNB-19 CNS): > 100 µM
- TGI (HT29 colon): > 100 µM
- TGI (TK-10 renal): > 100 µM
- TGI (HL-60(TB) leukemia): 52.7 µM
- TGI (BT-549 breast): > 100 µM
- TGI (KM12 colon): 64.4 µM
- TGI (OVCAR-5 ovarian): > 100 µM
- TGI (MOLT-4 leukemia): 55.1 µM
- TGI (HCC-2998 colon): 40.3 µM
- TGI (SK-MEL-5 melanoma): 27.1 µM
- TGI (NCI-H522 lung): 78.2 µM
- TGI (SK-MEL-28 melanoma): 95.9 µM
- TGI (SN12C renal): > 100 µM
- TGI (LOX IMVI melanoma): 69.9 µM
- TGI (SW-620 colon): 47.8 µM
- TGI (OVCAR-4 ovarian): 57.7 µM
- TGI (MCF7 breast): 38.7 µM
- TGI (HCT-116 colon): 38.1 µM
- TGI (RPMI-8226 leukemia): > 100 µM
- TGI (OVCAR-8 ovarian): 35.1 µM
- TGI (SF-268 CNS): > 100 µM
- TGI (CAKI-1 renal): 94.6 µM
- TGI (ACHN renal): > 100 µM
- TGI (DU-145 prostate): > 100 µM
- TGI (OVCAR-3 ovarian): > 100 µM
- TGI (SNB-75 CNS): > 100 µM
- TGI (UO-31 renal): > 100 µM
- TGI (MDA-MB-435): 30.8 µM
- TGI (HS 578T breast): 99.7 µM
- TGI (HOP-62 NSCLC): > 100 µM
- TGI (CCRF-CEM leukemia): 88.9 µM
- TGI (A498 renal): > 100 µM
- TGI (MDA-MB-231 breast): 94.3 µM
- TGI (HOP-92 NSCLC): > 100 µM
- TGI (HCT-15 colon): > 100 µM
- TGI (SF-295 CNS): > 100 µM
- TGI (MALME-3M melanoma): 28 µM
- TGI (PC-3 prostate): > 100 µM
- TGI (T-47D breast): > 100 µM
- TGI (SR leukemia): 86.1 µM
- TGI (NCI/ADR-RES ovarian): 52.1 µM
- TGI (SK-MEL-2 melanoma): > 100 µM
